Data on 1 molecule can be found in US20030100605A1, “Methods of treating cancer with angiogenesis inhibitors” (priority 2001, published 2003).

For orientation: inhibition means the change of the read-out against control, counted positive when it falls. A higher inhibition goes with strong suppression.

Each structure is given as a SMILES string.

Data set [1] is described as follows: Recovery of peripheral blood counts and marrow cellularity after stem cell rescue. The class given is in vivo, FVB mice. On the procedure: (§1) Compound (drug). TNP-470 was provided by TAP Pharmaceuticals (Deerfield, Ill.). Prior to use, TNP-470 was reconstituted in sterile saline, aliquoted and stored at −80° C. TNP-470 was used at a dose of 20-100 mg/kg given SQ three times per week beginning at day 0 or at a dose of 10-20 mg/kg/week given by continuous intraperitoneal infusion using an Alzet infusion pump (Alza Co., Palo Alto, Calif.). The continuous TNP-470 infusion began on the day prior to transplant to allow for pump implantation (see below).
Alzet infusion pump placement. Using sterile technique following anesthesia, a 1 cm midline abdominal incision was made and 14 day Alzet micro-osmotic pumps (0.25 μl/hr, model 1002) containing either TNP-470 or saline were placed intraperitoneally. The peritoneum and skin were then secured separately using 4.0 vicryl suture. The animals were allowed to recover overnight and then subjected to TBI and stem cell infusion on the following day.
Analysis of engraftment. […] Following cervical dislocation, BM and splenocytes were collected from recipient mice. Analysis was performed after red cell lysis with NH4Cl. For flow cytometric analysis of lymphoid engraftment, Tg IgM expressed only in B cells derived from the donor was detected by antibodies recognizing human IgM (RAHM; Jackson ImmunoResearch, West Grove, Pa.) and mouse CD45R (B220, Pharmingen, Torreyana, Calif.) in a two-color protocol on a FACS Caliber cytometer (Becton-Dickinson, Franklin Lakes, N.J.). Splenocytes from untransplanted Tg− and Tg+ mice provided negative and positive controls, respectively. Lymphoid engraftment was defined as the percentage of lymphoid cells in spleen and BM that were B220/RAHM positive. In addition to flow cytometry, genomic DNA from tail snips, blood, BM, and splenocytes was analyzed by PCR for the presence of the transgene, using a procedure and primers previously reported (15). The transgene was detectable by PCR in all donor-derived cells in the recipient, while the tail snips of Tg− mice provided a negative control. Genomic DNA was also isolated from splenic and peripheral blood T cells. Splenic T cells were isolated using the Cellect T isolation column (Biotex, Edmonton, Canada) according to the manufacturer's protocol. Peripheral blood T cells were sorted on the FACS Vantage (Becton-Dickson) after staining with antibodies recognizing mouse CD3 (Pharmingen). Recovery of peripheral blood counts was also analyzed. Blood was collected from cardiac puncture and placed in EDTA tubes (Becton-Dickson). Analysis was then performed with a HemeVet (CDC Technologies) instrument using mouse-specific parameters. Hemoglobin was measured and white blood cells (WBC) and platelets were enumerated.

A short description of data set [2]: Survival and toxicity after TBI and stem cell rescue in the mouse stem cell transplant model. The class given is in vivo, FVB mice.
Text: Donors, recipients and preparative regimen. Transgenic mice expressing a human IgM Tg in the FVB background were used as the donor source of bone marrow stem cells for transplantation. The FVB strain of inbred mice is frequently utilized in the generation of transgenic animals. Marrow was collected from Tg+ mice from femurs flushed with sterile PBS. Recipients were FVB mice (Jackson Laboratory, Bar Harbor, Me.) or Tg negative littermates of the Tg positive donors, treated in groups of 5-8 animals/intervention. Recipients received total body irradiation (TBI) in an M38-1 Irradiator (Isomedix) at a dose rate of 2.7 Gy/min in a mixed/split fashion with a 3 hour interfraction interval to allow a higher dose of radiation without significant gastrointestinal toxicity. After completion of TBI, mice received stem cells via tail vein injection. The mice were maintained in a temperature controlled humidified area in autoclaved microisolator cages and fed ad libitum and provided acidified water. Mice were assessed three times weekly after stem cell infusion. These studies were approved by the Animal Care and Use Committee of the Children's Hospital of Philadelphia.
as §1
Effect of TNP-470 on engraftment. Several dose levels of TNP-470 were explored to assess any effect on BM engraftment and engraftment kinetics. Immediately following lethal irradiation and tail vein injection of Tg+ BM cells, recipient mice were given either TNP-470 or saline starting on day 0. Dose schedules were also varied from a single dose at the time of stem cell infusion to an initial dose on day 0 followed by administration of TNP-470 or saline 3 times a week (Table 3). Mice were initially sacrificed on days 28-32 at all dose levels. Comparative kinetics were then further analyzed by sacrificing groups of mice at day 21, day 24, and day 28 at dose level 3.

For data set [3] the following is noted: cited from earlier work.
Data set [4] deals with neuroblastoma cell lines. Particulars: first administered ten days after inoculation with two different neuroblastoma cell lines; cited from earlier work.
Data set [5] concerns human hematopoietic progenitors. The data set is described as follows: In vitro bone marrow culture, colony formation in methylcellulose. Type of data set: cell-based. As for the experimental part:
In vitro bone marrow culture. Light density cells separated by density gradient centrifugation (Lymphocyte Separation Medium, ICN Pharmaceutical, Costa Mesa, Calif.) from normal human BM donors were plated in methylcellulose medium with recombinant cytokines. This medium, MethoCult GF (Stem Cell Technologies, Vancouver, Canada), contains stem cell factor 50 ng/ml, GM-CSF 10 ng/ml, IL-3 10 ng/ml and erythropoietin 3 units/ml. 5×10^4 BM cells/dish were cultured with TNP-470 at concentrations ranging from 1 mcg/ml to […], with duplicate cultures at each dose. The plates were scored after 14 days of culture, enumerating colony-forming unit granulocyte/macrophage (CFU-GM), CFU-mix, CFU-erythrocyte and burst-forming unit erythrocyte (CFU-E and BFU-E).
Effect of TNP-470 on bone marrow colony-forming cells. Although hematologic toxicity has not been described in the TNP-470 phase I trials (24, 25), there is one report of in vitro evidence of BM toxicity (16). In order to confirm this finding, we investigated the effect of relatively high concentrations of TNP-470 (0-100 μg/ml) on growth of human hematopoietic progenitors in standard methylcellulose culture. […] Although this assay is not necessarily predictive of in vivo BM toxicity, the result emphasizes the need to develop a pre-clinical model of stem cell transplantation to assess the effect of AIs on engraftment.

Turning to `CO[C@@H]1[C@H](OC(=O)NC(=O)CCl)CC[C@@]2(CO2)[C@H]1[C@]1(C)O[C@@H]1CC=C(C)C` [TNP-470], the WBC was 6300 µL⁻¹ in data set [1] (continuous infusion); 6.3 ± 0.4 10^3/μL in data set [1] (day 28 post BMT, continuous infusion IP via Alzet pump at 10 mg/kg/wk, mean ± SEM); 3.6 ± 0.7 10^3/μL in data set [1] (day 28 post BMT, intermittent dosing, dose level 3, SQ three times/wk, mean ± SEM). Moreover, the “hemoglobin or platelet recovery versus control” value in data set [1] (continuous infusion 10 mg/kg/week) is given as “no significant differences”. For the same molecule, in data set [1] (day 28, dose level 3, femurs), the “marrow cellularity versus controls” value is on record as “no difference”. Moreover, the “hemoglobin or platelet count versus control” value in data set [1] (intermittent (bolus) dosing) was “No statistical differences”. In addition, the “mean white blood cell count” value in data set [1] (intermittent TNP-470) stood at 3600 µL⁻¹. Besides, the Overall survival in data set [2] (all dose levels, after stem cell rescue) is listed as 66%. In data set [2] (dose level 1 (20 mg/kg on day 0 and then thrice weekly), at completion of the experiment), the survival rate amounted to 57%. In data set [2] (dose level 2 (100 mg/kg on day 0 only), day 28-32), the “survived to experiment completion” value was determined as 71%. Moreover, the weight loss result in data set [2] (dose level 4 (100 mg/kg 3×/week)) is given as “greater weight loss than the control animals”. The skin irritation entry in data set [2] (dose level 4 (100 mg/kg 3×/week), SQ) is recorded as “evidence of skin irritation at the injection sites”. For the same molecule, the “hematologic toxicity in Phase I trials” value in data set [3] (Phase I trials) is “no significant hematologic toxicity”. Besides, the “maximal tolerated dose (MTD)” value in data set [3] (one-hour intravenous infusions, three times a week, intermittent schedule) is listed as 60 mg/m^2. Moreover, in data set [4], the “effect on primary tumor and metastases” value is “decreased the primary tumor volume and the size and number of lymph node and liver metastases”. In data set [5] (Homo sapiens, 336 h, TNP-470 4 μg/ml, myeloid and erythroid colonies, 14 days culture), this molecule registered an inhibition at 4 µg/mL greater than 80%. Further, the “inhibition of colony-forming cells” value in data set [5] (higher doses than 4 μg/ml (range 0-100 μg/ml)) is “complete inhibition”.
